This note sets out measurements from patent publication US20110159304A1, “ANTI-SULPHATE REDUCING BACTERIA COMPOSITION COMPRISING 1,2-BENZISOTHIAZOL-3(2H)-ONE, IRGASAN, BENZYL-2-BROMOACETATE, 2,2-DIBROMO-2-CYANOACETAMIDE, AND 2-BROMO-2-NITROPROPAN-1,3-DIOL” (KOREA GAS CORPORATION, priority 2009, published 2011).

What all share (type): cell-based
In assay [1] the test system is Desulfovibrio desulfuricans KCTC 5786. Put plainly: Antibacterial activity evaluation, paper disk clear zone and MIC. To be noted: for MIC minimum inhibitory concentration: paper disk test, concentrations 1.0-0.001%, 37° C.; for zone of inhibition at 0.001 % / zone of inhibition at 0.01 % / zone of inhibition at 0.1 % / zone of inhibition at 1 %: Desulfovibrio desulfuricans; for zone of inhibition at 0.001 %: antibacterial agent concentration 0.001%; for antibacterial activity relative to other commercially used antibacterial agents: compared by MIC with 1-hydroxypyridine-2-tionzinc, 2-methyl-isothiazolin-3-one and the like. The protocol: Desulfovibrio desulfuricans KCTC 5786 was used as a test sulphate reducing bacteria strain.
The all materials used in the test, disk paper, medium and so on, were sterilized for 15 min at 121° C. Bacteria's culture and antibacterial activity test were performed in an anaerobic chamber (Anaerobic System, Form a Sci; condition maintaining not more than 5 ppm of oxygen concentration).
After culturing the test strain for not less than 3 days, the volume of the culture was adjusted to 10^5-7/mL to prepare for plating it on Desulfovibrio medium, and the test compounds were resolved in a suitable solvent for use (ethanol for lipid soluble compounds, and distilled water for water soluble compounds).
(§1) The experiment proceeded with varying the concentration of the compounds used in the experiment to 1.0%, 0.1%, 0.01%, and 0.001%. The 8 mm of a paper disk was placed on the plate prepared by plating the culture, and were inoculated with 50 μl of various concentrations of the compound. After culturing the strain for 24, and 48 hrs at 37° C., the clear zone (mm) representing antibacterial activity was measured and Minimum Inhibitory Concentration (MIC) was determined.

Assay [2] has the same test system. Put plainly: Antibacterial activity test after thermal shock (paper disk clear zone). Conditions: for clear zone after thermal shock / clear zone before thermal shock: 0.1% condition; for clear zone after thermal shock: after thermal shock (180° C., 1 hr); for antibacterial activity after thermal shock: after 180° C., 1 hour, 0.1%. Here is the method: as §1
Applying the heat shrinkable sheet using flames of torch, the temperature increased to about 150° C. and the exposure time was around 15 minutes. […] After 1,2-benzisothiazol-3(2H)-one, irgasan, benzyl-2-bromoacetate, 2,2-dibromo-2-cyanoacetamide, and 2-bromo-2-nitropropan-1,3-diol were exposed to higher temperature (180° C.) for a longer time (1 hour), the antibacterial activity was measured at a concentration of 0.1% using the same method as Experiment Example 1 (see, Table 3, FIGS. 3a to 3e).

Assay [3] has the same test system. The assay can be described thus: Antibacterial activity test of antibacterial agent-added coating material (adhesive, primer). The protocol:
as §1
Test equipment and materials, and test condition are as follows: • Coating material type: adhesive (Canusa), primer (Polyken) • Mixed antibacterial agent's concentration: control, 0.5, 1.0, 2.0, 5.0 wt %
As an adhesive specimen, the components were mixed by manual stirring in an oven at 150° C., and then an 1 mm-thick adhesive sheet was fabricated. As a primer specimen, a 0.2 mm-thick sheet having a primer dry film was fabricated. The specimen was diced into a size of 15 mm×15 mm, and after UV sterilization, the antibacterial activity of the specimen was assessed using the same environment and method as in the test method of Experiment Example 1 described above.

The mark [4] stands for this setting: antibacterial agent concentration 0.1%, 8 mm paper disk, 50 μl, — = negative.
[5] abbreviates: antibacterial agent concentration 1%, 8 mm paper disk, 50 μl, — = negative.
The mark [6] stands for this setting: KCTC5786, 8 mm paper disk, 50 μl, — = negative, read-out: CZ (mm) clear zone.
[7] abbreviates: KCTC5786, antibacterial agent concentration 0.01%, 8 mm paper disk, 50 μl, — = negative, read-out: CZ (mm) clear zone.
[8] abbreviates: KCTC5786, antibacterial agent concentration 0.1%, 8 mm paper disk, 50 μl, — = negative, read-out: CZ (mm) clear zone.
The mark [9] stands for this setting: KCTC5786, antibacterial agent concentration 1%, 8 mm paper disk, 50 μl, — = negative, read-out: CZ (mm) clear zone.
[10] abbreviates: adhesive (Canusa) with 0.5 wt % antibacterial agent.
Where [11] appears, read: adhesive (Canusa) with 1.0 wt % antibacterial agent.
Where [12] appears, read: adhesive (Canusa) with 2.0 wt % antibacterial agent.
[13] abbreviates: adhesive (Canusa) with 5.0 wt % antibacterial agent.
The mark [14] stands for this setting: primer (Polyken) with 1.0 wt % antibacterial agent.
Setting [15] is: primer (Polyken) with 2.0 wt % antibacterial agent.
The mark [16] stands for this setting: primer (Polyken) with 5.0 wt % antibacterial agent.
The mark [17] stands for this setting: KCTC5786, read-out: CZ (mm) clear zone.
Setting [18] is: primer (Polyken) with 0.5 wt % antibacterial agent.

Like-named read-outs stand apart in the source and are kept apart here.

For the molecule `[O-]n1ccccc1=S.[O-]n1ccccc1=S.[Zn+2]` [1-hydroxypyridine-2-thionezinc, reference compound], the “CZ (mm) clear zone” value was determined as 1 mm in assay [1] (setting [4]) and 3.5 mm in assay [1] (setting [5]). In assay [1], the “MIC minimum inhibitory concentration” value is 0.1%.
For `O=c1[nH]sc2ccccc12` [1,2-benzisothiazol-3(2H)-one], the zone of inhibition at 0.001 % in assay [1] (setting [6]) is 1 mm. In assay [1] (setting [7]), the zone of inhibition at 0.01 % came out at 2.5 mm. Besides, the zone of inhibition at 0.1 % in assay [1] (setting [8]) amounted to 6.5 mm. Besides, the zone of inhibition at 1 % in assay [1] (setting [9]) was 13.5 mm. Further, in assay [1], the “antibacterial activity relative to other commercially used antibacterial agents” value is on record as 10 times. In addition, the “clear zone after thermal shock” value in assay [2] came to 14.5 mm. Moreover, the “clear zone before thermal shock” value in assay [2] amounted to 16 mm. In addition, in assay [2], the “antibacterial activity after thermal shock” value is listed as “maintained the excellent antibacterial activity”. Also, the “Clear zone (mm), adhesive” value is 15 mm in assay [3] (setting [10]), 18 mm in assay [3] (setting [11]), 19 mm in assay [3] (setting [12]) and 25 mm in assay [3] (setting [13]). In addition, the “Clear zone (mm), primer” value in assay [3] (setting [14]) was found to be 7.5 mm; in assay [3] (setting [15]), 8.5 mm; in assay [3] (setting [16]), 17.5 mm.
As for “Molybdenum (VI) oxide [Molybdenum (VI) oxide 99.99%, reference compound]”, in assay [1] (setting [5]), the “CZ (mm) clear zone” value was found to be 6 mm. For the same molecule, the “MIC minimum inhibitory concentration” value in assay [1] is recorded as 1.0%.
For the molecule `Cn1sccc1=O` [2-methyl-4-isothiazoline-3-one, reference compound], in assay [1] (setting [17]), the zone of inhibition at 0.1 % was determined as 5 mm and the zone of inhibition at 1 % came out at 12 mm. Further, the “MIC minimum inhibitory concentration” value in assay [1] came out at 0.1%.
`O=CCCCC=O` [Glutar-di-aldehyde, 50 wt %, Glutar-di-aldehyde, reference compound]: the results for the “CZ (mm) clear zone” value in assay [1] (setting [4]) and in assay [1] (setting [5]) were 6 mm and 12 mm, respectively. In addition, in assay [1], the “MIC minimum inhibitory concentration” value was found to be 0.1%.
In the case of `O=[N+]([O-])C(Br)(CO)CO` [2-bromo-2-nitropropan-1,3-diol], in assay [1] (setting [7]), the zone of inhibition at 0.01 % is 1.5 mm. Further, in assay [1] (setting [8]), the zone of inhibition at 0.1 % was found to be 8 mm. Also, in assay [1] (setting [9]), the zone of inhibition at 1 % is 18.5 mm. In addition, the “antibacterial activity relative to other commercially used antibacterial agents” value in assay [1] is 10 times. Moreover, the “clear zone after thermal shock” value in assay [2] worked out at 25 mm. Also, in assay [2], the “clear zone before thermal shock” value amounted to 20 mm. Also, the “antibacterial activity after thermal shock” value in assay [2] was “maintained the excellent antibacterial activity”. The “Clear zone (mm), adhesive” value in assay [3] (setting [10]) is reported as 5.5 mm; in assay [3] (setting [11]), 10.5 mm; in assay [3] (setting [12]), 13 mm; in assay [3] (setting [13]) it was 14.5 mm. The “Clear zone (mm), primer” value is on record as 9 mm in assay [3] (setting [18]), 9 mm in assay [3] (setting [14]), 2 mm in assay [3] (setting [15]) and 16.5 mm in assay [3] (setting [16]).
For the molecule `O=C(Nc1ccc(Cl)cc1)Nc1ccc(Cl)c(Cl)c1` [3,4,4-trichloro-Carbanilide, reference compound], the “MIC minimum inhibitory concentration” value in assay [1] was at least 1%.
As for `N#Cc1c(Cl)c(Cl)c(Cl)c(C#N)c1Cl` [Chlorothalonil, reference compound], in assay [1] (setting [8]), the zone of inhibition at 0.1 % was 2 mm. Also, in assay [1] (setting [9]), the zone of inhibition at 1 % was 4 mm. The “MIC minimum inhibitory concentration” value in assay [1] amounted to 0.1%.
As for `CCCCNC(=O)OCC#CI` [3-iodo-2-propynyl n-butylcarbamate, 97%, 3-iodo-2-propynyl n-butylcarbamate, reference compound], in assay [1] (setting [8]), the zone of inhibition at 0.1 % amounted to 3 mm. Moreover, in assay [1] (setting [9]), the zone of inhibition at 1 % was determined as 5.5 mm. Further, in assay [1], the “MIC minimum inhibitory concentration” value is on record as 0.1%.
Regarding `Cc1cc(O)cc(C)c1Cl` [4-chloro-3,5-dimethylphenol, reference compound], the zone of inhibition at 0.1 % in assay [1] (setting [8]) is 1 mm. Also, the zone of inhibition at 1 % in assay [1] (setting [9]) is 16 mm. For the same molecule, in assay [1], the “MIC minimum inhibitory concentration” value is listed as 0.1%.
Consider `N#CC(Br)(Br)C(N)=O` [2,2-dibromo-2-cyanoacetamide], for which the zone of inhibition at 0.001 % in assay [1] (setting [6]) was at least 39 mm. Also, the zone of inhibition at 0.01 % in assay [1] (setting [7]) is at least 39 mm. Further, the zone of inhibition at 0.1 % in assay [1] (setting [8]) was at least 39 mm. Besides, the zone of inhibition at 1 % in assay [1] (setting [9]) was at least 39 mm. In addition, the “antibacterial activity relative to other commercially used antibacterial agents” value in assay [1] is on record as 10 times. For the same molecule, the “clear zone after thermal shock” value in assay [2] was 18.5 mm. Further, the “clear zone before thermal shock” value in assay [2] is 39.5 mm. Besides, the “antibacterial activity after thermal shock” value in assay [2] is listed as “maintained the excellent antibacterial activity”. For the same molecule, the “Clear zone (mm), adhesive” value in assay [3] (setting [10]) is 2 mm; in assay [3] (setting [11]) it was 2.5 mm; in assay [3] (setting [12]), “≧26 mm”; in assay [3] (setting [13]) it was “≧30.5 mm”. Moreover, the “Clear zone (mm), primer” value in assay [3] (setting [18]) is given as 1.5 mm; in assay [3] (setting [15]) it was 1 mm; in assay [3] (setting [16]), 6.5 mm.
Regarding `O=C(CBr)OCc1ccccc1` [Benzyl-2-bromoacetate, benzyl-2-bromoacetate], the zone of inhibition at 0.001 % in assay [1] (setting [6]) is 35 mm. Also, in assay [1] (setting [7]), the zone of inhibition at 0.01 % is at least 39 mm. In assay [1] (setting [8]), the zone of inhibition at 0.1 % is at least 39 mm. Also, the zone of inhibition at 1 % in assay [1] (setting [9]) is at least 39 mm. In assay [1], the “antibacterial activity relative to other commercially used antibacterial agents” value stood at 10 times. In assay [2], the “clear zone after thermal shock” value was determined as 36 mm. Moreover, in assay [2], the “clear zone before thermal shock” value is listed as 39 mm. For the same molecule, the “antibacterial activity after thermal shock” value in assay [2] is “maintained the excellent antibacterial activity”. Also, the “Clear zone (mm), adhesive” value in assay [3] (setting [10]) is given as 24 mm; in assay [3] (setting [11]), 30 mm; in assay [3] (setting [12]) it was 34 mm; in assay [3] (setting [13]), “≧39 mm”. The “Clear zone (mm), primer” value in assay [3] (setting [18]) is recorded as “≧26 mm”; in assay [3] (setting [14]) it was “≧32 mm”; in assay [3] (setting [15]) it was “≧34 mm”; in assay [3] (setting [16]), “≧39 mm”.
Consider `Oc1cc(Cl)ccc1Oc1ccc(Cl)cc1Cl` [Irgasan, irgasan], for which, in assay [1] (setting [17]), the zone of inhibition at 0.01 % worked out at 5 mm, the zone of inhibition at 0.1 % came out at 11 mm and the zone of inhibition at 1 % came out at 14 mm. In assay [1], the “antibacterial activity relative to other commercially used antibacterial agents” value came to 10 times. In assay [2], the “clear zone after thermal shock” value is on record as 13 mm, the “clear zone before thermal shock” value is listed as 13 mm and the “antibacterial activity after thermal shock” value is reported as “maintained the excellent antibacterial activity”. In assay [3] (setting [18]), the “Clear zone (mm), primer” value came out at 3.5 mm. In assay [3] (setting [14]), the “Clear zone (mm), primer” value is 1.5 mm. In assay [3] (setting [15]), the “Clear zone (mm), primer” value amounted to 1.5 mm. Moreover, in assay [3] (setting [16]), the “Clear zone (mm), primer” value was found to be 6 mm.
In the case of `c1ccc2[nH]c(-c3cscn3)nc2c1` [Thiabendazole minimum 99%, Thiabendazole, reference compound], the “MIC minimum inhibitory concentration” value in assay [1] is recorded as at least 1%.
